The test system of one series is HepG2. The series is described as follows: MTT cytotoxicity assay, HepG2. The format is cell-based. The settings on record: HepG2, 72 h, human hepatoma cells. As to the method: (§1) The cytotoxicity of these compounds was tested on five cells lines by the standard MTT assay. The human cancer cells lines (HepG2, HT-29, Hela, BGC-823) and MDCK cells were provided by the Chinese Academy of Medical Sciences Peking Union Medical College. The tumor cells were cultured in RPMI 1640 medium supplemented with 10% (v/v) fetal bovine serum and 1% (v/v) penicillin-streptomycin (Thermo Technologies, New York, NY, USA) at 37 °C in a humidified atmosphere with 5% CO2. The growing tumor cells at a density 3 × 10^3 cells/mL were exposed to various concentrations of the tested drugs and incubated in a 96-well microtiter plate for 72 h (37 °C, 5% CO2). After MTT solution (20 μL, 5 mg/mL) was added to each well, the plate was incubated for a further 4 h. Then the media was removed. Formazan crystals were dissolved with DMSO (150 μL). After mixing well, the absorbance was quantified at 490 nm with a BIORAD 550 spectrophotometer (Bio-rad Life Science Development Ltd., Beijing, China). Wells containing no drugs were used to be blanks. The IC50 values were defined as the concentration of compounds that produced a 50% reduction of surviving cells and calculated using the Logit-method. Tumor cell growth inhibitory rate was calculated in the following Equation (1): % inhibition = (1 − Sample group OD/Control group OD) × 100%(1)

Another series relates to Hela. Kind of series: MTT cytotoxicity assay, Hela. The class given is cell-based, human. The conditions noted are these: Homo sapiens, 72 h, cervical cancer cells. The procedure:
as §1

In another series the test system is HT-29. The series is described as follows: MTT cytotoxicity assay, HT-29. The format is cell-based. The settings on record: HT-29, 72 h, human colorectal cancer cells. As to the method:
as §1

For another series, the system named is BGC-823. The series is described as follows: MTT cytotoxicity assay, BGC-823. The format is cell-based. The settings on record: BGC-823, 72 h, human gastric cancer cells. As to the method: as §1
In the next series the test system is MDCK cells. Kind of series: MTT toxicity (nephrotoxicity) evaluation, MDCK. The format is cell-based. The conditions noted are these: Canis lupus familiaris, MDCK, 72 h, Madin-Darby canine kidney cells. The procedure: as §1

Some results are limits rather than exact numbers.

`Cc1nc(C)c(COC(=O)[C@]23CCC(C)(C)CC2C2=CCC4[C@@]5(C)CC[C@H](OC(=O)[C@@H](N)Cc6c[nH]c7ccccc67)C(C)(C)C5CC[C@@]4(C)[C@]2(C)CC3)nc1C` (stereo partly drawn) [Compound 6k, 3β-L-Tryptophan ester olean-12-en-28-oic acid-3,5,6-trimethylpyrazin-2-methyl ester] yielded a melting point of 206.9 to 207.7 °C. In the series on HepG2, this compound returned an IC50 of 11.4 µM. In addition, the IC50 with Hela is above 25 µM. This compound also came in with an IC50 in the series with HT-29 above 25 µM. The IC50 in the series on BGC-823 was found to be 10 µM. In the series with MDCK cells, the IC50 amounted to 10.8 µM.
The compound `Cc1nc(C)c(COC(=O)[C@]23CCC(C)(C)CC2C2=CCC4[C@@]5(C)CC[C@H](OC(=O)[C@@H](N)C(C)C)C(C)(C)C5CC[C@@]4(C)[C@]2(C)CC3)nc1C` (stereo partly drawn) [Compound 6f, 3β-L-Valine ester olean-12-en-28-oic acid-3,5,6-trimethylpyrazin-2-methyl ester] had a melting point of 89.5 to 91 °C. This compound gave an IC50 in the series with HepG2 of 4.26 µM. In the series with Hela, this compound had an IC50 above 25 µM. For the same compound, in the series with HT-29, the IC50 turned out to be 5.96 µM. For the same compound, inhibition with BGC-823 was half-maximal at 9.52 µM (IC50). The IC50 with MDCK cells amounted to 9.79 µM.
Compound `CC[C@H](C)[C@H](N)C(=O)O[C@H]1CC[C@@]2(C)C(CC[C@]3(C)C2CC=C2C4CC(C)(C)CC[C@]4(C(=O)OCc4nc(C)c(C)nc4C)CC[C@]23C)C1(C)C` (stereo partly drawn) [Compound 6e, 3β-L-Isoleucine ester olean-12-en-28-oic acid-3,5,6-trimethylpyrazin-2-methyl ester] came in with a melting point of 89.8 to 90.7 °C. This compound also showed an IC50 in the series on HepG2 of 5.97 µM. The IC50 with Hela is above 25 µM. In addition, it took 9.83 µM to reach half-maximal inhibition with HT-29 (IC50). Also, the IC50 in the series on BGC-823 was above 25 µM. In addition, in the series on MDCK cells, the IC50 was above 25 µM.
The compound `Cc1nc(C)c(COC(=O)[C@]23CCC(C)(C)CC2C2=CCC4[C@@]5(C)CC[C@H](OC(=O)[C@@H]6CCC(=O)N6)C(C)(C)C5CC[C@@]4(C)[C@]2(C)CC3)nc1C` (stereo partly drawn) [Compound 6j, 3β-L-Pyroglutamate ester olean-12-en-28-oic acid-3,5,6-trimethylpyrazin-2-methyl ester] yielded a melting point of 124.6 to 125.8 °C.
`CNCC(=O)O[C@H]1CC[C@@]2(C)C(CC[C@]3(C)C2CC=C2C4CC(C)(C)CC[C@]4(C(=O)OCc4nc(C)c(C)nc4C)CC[C@]23C)C1(C)C` (stereo partly drawn) [Compound 6i, 3β-L-Sarcosine ester olean-12-en-28-oic acid-3,5,6-trimethylpyrazin-2-methyl ester]: the melting point lay in the range of 81.9 to 82.5 °C. Moreover, the IC50 in the series on HepG2 was 10.2 µM. Moreover, half-maximal inhibition in the series on Hela (IC50) required 12.6 µM. Besides, in the series with HT-29, 16.9 µM corresponded to half-maximal inhibition (IC50). The same compound registered an IC50 with BGC-823 of 16 µM. In addition, the IC50 in the series with MDCK cells came out at 15.8 µM.
Compound `Cc1nc(C)c(COC(=O)[C@]23CCC(C)(C)CC2C2=CCC4[C@@]5(C)CC[C@H](OC(=O)[C@@H](N)Cc6ccccc6)C(C)(C)C5CC[C@@]4(C)[C@]2(C)CC3)nc1C` (stereo partly drawn) [Compound 6h, 3β-L-Phenylalanine ester olean-12-en-28-oic acid-3,5,6-trimethylpyrazin-2-methyl ester] gave a melting point of 82.4 to 83.8 °C. For the same compound, the IC50 in the series with HepG2 was 8.22 µM. The compound also yielded an IC50 with Hela above 25 µM. This compound also returned an IC50 in the series with HT-29 of 9.5 µM. In the series with BGC-823, this compound registered an IC50 above 25 µM. In the series on MDCK cells, this compound gave an IC50 of 8.12 µM.
The compound `Cc1nc(C)c(COC(=O)[C@]23CCC(C)(C)CC2C2=CCC4[C@@]5(C)CC[C@H](OC(=O)[C@@H](N)CC(C)C)C(C)(C)C5CC[C@@]4(C)[C@]2(C)CC3)nc1C` (stereo partly drawn) [Compound 6d, 3β-L-Leucine ester olean-12-en-28-oic acid-3,5,6-trimethylpyrazin-2-methyl ester] had a melting point of 89.6 to 91.6 °C. Moreover, the IC50 with HepG2 is above 25 µM. Also, the IC50 in the series with Hela is above 25 µM. The compound further came in with an IC50 with HT-29 above 25 µM. The compound also yielded an IC50 in the series on BGC-823 above 25 µM. In the series on MDCK cells, this compound gave an IC50 above 25 µM.
